Laboratory results taken from patent US6376497B1, “Antifungal azole derivatives having a fluorinated vinyl group and process for preparing same” (Korea Research Institute of Chemical Technology, priority 1999, dated 2002).

Columns and labels:
Assay in all cases: In vitro antifungal activity, microbroth dilution MIC
Type in all cases: cell-based
Conditions in all cases: RPMI-1640, 35° C., 4 to 48 hours, no growth observed
[1] = tested on: Candida albicans A. 10231
Outline: (§1)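 Broth microdilution adapted from NCCLS M27, in RPMI-1640 with 0.165 M MOPS, pH 7.0. Yeast or mould inoculum at 2×10^3 CFU/ml was mixed 1:1 with DMSO-derived compound solutions (200 to 0.10 μg/ml before mixing) and incubated at 35 °C for 4 to 48 h. MIC was the concentration showing no growth.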

[2] = tested on: Torulopsis glabrata B. 16205
Outline: as §1

[3] = tested on: Aspergillus niger A. 16404
Outline: as §1

[4] = tested on: Candida krusei K. 11655
Outline: as §1

[5] = tested on: Candida albicans IFO. 1385
Outline: as §1

[6] = tested on: Trichophyton mentagrophytes B. 32663
Outline: as §1

[7] = tested on: Candida albicans C1-2
Outline: as §1

[8] = tested on: Cryptococcus neoformans IFM. 40092
Outline: as §1

[9] = tested on: Candida pseudotropicalis K. 11658
Outline: as §1

[10] = tested on: Candida tropicalis A. 13803
Outline: as §1

[11] = tested on: Cryptococcus neoformans B. 42419
Outline: as §1

[12] = tested on: Aspergillus furnigatus B. 19119
Outline: as §1

[13] = tested on: Candida parapsitosis A. 7330
Outline: as §1

[14] = tested on: Cryptococcus neoformans A. 34144
Outline: as §1

[15] = tested on: Trichophyton mentagrophytes A. 9129
Outline: as §1

Row | SMILES | Minimal inhibitory concentration(MIC), C. albicans A. 10231 [1] [µg/mL] | Minimal inhibitory concentration(MIC), T. glabrata B. 16205 [2] [µg/mL] | Minimal inhibitory concentration(MIC), A. niger A. 16404 [3] [µg/mL] | Minimal inhibitory concentration(MIC), C. krusei K. 11655 [4] [µg/mL] | Minimal inhibitory concentration(MIC), C. albicans IFO. 1385 [5] [µg/mL] | Minimal inhibitory concentration(MIC), T. mentagrophytes B. 32663 [6] [µg/mL] | Minimal inhibitory concentration(MIC), C. albicans C1-2 [7] [µg/mL] | Minimal inhibitory concentration(MIC), Cry. neoformans IFM. 40092 [8] [µg/mL] | Minimal inhibitory concentration(MIC), C. pseudotropicalis K. 11658 [9] [µg/mL] | Minimal inhibitory concentration(MIC), C. tropicalis A. 13803 [10] [µg/mL] | Minimal inhibitory concentration(MIC), Cry. neoformans B. 42419 [11] [µg/mL] | Minimal inhibitory concentration(MIC), A furnigatus B. 19119 [12] [µg/mL] | Minimal inhibitory concentration(MIC), C. parapsitosis A. 7330 [13] [µg/mL] | Minimal inhibitory concentration(MIC), Cry. neoformans A. 34144 [14] [µg/mL] | Minimal inhibitory concentration(MIC), T. mentagrophytes A. 9129 [15] [µg/mL]
1 | FC(Oc1ccc(OCC2COC(Cn3ccnc3)(c3ccc(Cl)cc3Cl)O2)cc1)=C(c1ccc(C(F)(F)F)cc1)C(F)(F)F (mixture of isomers) [Ex. 97] | >100 | 100 | >100 | >100 | 3.13 | 12.5 | >100 | 0.78 | >100 | >100 | 3.13 | >100 | >100 | 3.13 | 25.0
2 | COc1ccc(C(=C(F)Oc2ccc(OCC3COC(Cn4ccnc4)(c4ccc(Cl)cc4Cl)O3)cc2)C(F)(F)F)cc1 (mixture of isomers) [Ex. 98] | 50.0 | 50 | >100 | >100 | 3.13 | 6.25 | 100 | 0.78 | >100 | >100 | 6.25 | >100 | >100 | 3.13 | 25.0
3 | FC(Oc1ccc(OCC2COC(Cn3ccnc3)(c3ccc(Cl)cc3Cl)O2)cc1)=C(c1ccc2c(c1)OCO2)C(F)(F)F (mixture of isomers) [Ex. 99] | 100 | 100 | >100 | >100 | 3.13 | 25.0 | >100 | 0.78 | >100 | >100 | 3.13 | >100 | >100 | 3.13 | 50.0
4 | FC(Oc1ccc(OCC2COC(Cn3ccnc3)(c3ccc(Cl)cc3Cl)O2)cc1)=C(c1ccc(Oc2ccccc2)cc1)C(F)(F)F (mixture of isomers) [Ex. 100] | 50.0 | >100 | >100 | >100 | 6.25 | 100 | 100 | 1.56 | >100 | >100 | 12.5 | >100 | >100 | 6.25 | 100
